Experimental data reported in patent US7566791B2, “Substituted 3-carbonyl-1h-indol-1yl acetic acid derivatives as inhibitors of plasminogen activator inhibitor-1 (PAI-1)” (Wyeth, priority 2002, dated 2009).

Key:
[1] = target: T1, recombinant human plasminogen activator inhibitor-1 (Homo sapiens, UniProt P05121); assay: Primary screen for the PAI-1 inhibition (residual tPA activity, chromogenic Spectrozyme-tPA); assay type: biochemical; details: 25 uM test compound; pH 6.6 buffer, 140 nM PAI-1, 70 nM tPA
T1 construct: purchased Molecular Innovations, Royal Oak, Mich
T1 sequence (P05121 24-402): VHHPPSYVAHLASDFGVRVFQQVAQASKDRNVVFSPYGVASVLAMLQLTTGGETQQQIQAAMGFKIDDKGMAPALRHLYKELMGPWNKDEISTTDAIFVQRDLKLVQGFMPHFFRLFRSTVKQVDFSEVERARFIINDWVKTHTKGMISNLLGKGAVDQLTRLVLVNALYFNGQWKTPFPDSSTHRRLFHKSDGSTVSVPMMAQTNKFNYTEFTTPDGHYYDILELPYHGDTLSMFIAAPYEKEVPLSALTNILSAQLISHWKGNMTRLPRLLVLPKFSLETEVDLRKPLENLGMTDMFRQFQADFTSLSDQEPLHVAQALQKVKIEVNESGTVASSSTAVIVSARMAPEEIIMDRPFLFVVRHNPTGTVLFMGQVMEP
Description: Primary Screen for the PAI-1 Inhibition
Test compounds were dissolved in DMSO at a final concentration of 10 mM, then diluted 100× in physiologic buffer. The inhibitory assay was initiated by the addition of the test compound (1-100 μM final concentration, maximum DMSO concentration of 0.2%) in a pH 6.6 buffer containing 140 nM recombinant human plasminogen activator inhibitor-1 (Molecular Innovations, Royal Oak, Mich.). Following a 1 hour incubation at room temperature, 70 nM of recombinant human tissue plasminogen activator (tPA) was added, and the combination of the test compound, PAI-1 and tPA was incubated for an additional 30 minutes. Following the second incubation, Spectrozyme-tPA (American Diagnostica, Greenwich, Conn.), a chromogenic substrate for tPA, was added and absorbance was read at 405 nm at 0 and 60 minutes. Relative PAI-1 inhibition was equal to the residual tPA activity in the presence of the test compound and PAI-1. Control treatments included the complete inhibition of tPA by PAI-1 at the molar ratio employed (2:1), and the absence of any effect of the test compound on tPA alone.

Row | SMILES | melting point [°C] | inhibition at 25 µM [1] [%]
1 | O=C(O)Cn1cc(C(=O)c2ccc(Cl)cc2)c2cc(-c3ccc(Cl)cc3)ccc21 [Example 1, [3-(4-chlorobenzoyl)-5-(4-chlorophenyl)-1H-indol-1-yl]acetic acid] | 255 to 257 | 47
2 | Cc1ccc(-c2ccc3c(c2)c(C(=O)c2cc4ccccc4s2)cn3CC(=O)O)cc1 [Example 2, [3-(Benzo[b]thiophene-2-carbonyl)-5-(4-methylphenyl)-1H-indol-1-yl]-acetic acid] | – | 45
3 | Cc1ccc(-c2ccc3c(c2)c(C(=O)c2ccc(Cl)cc2)cn3CC(=O)O)cc1 [Example 3, [3-(4-chlorobenzoyl)-5-(4-methylphenyl)-1H-indol-1-yl]-acetic acid] | – | 46
